From publication PMC9149975, “The diaryl-imidazopyridazine anti-plasmodial compound, MMV652103, exhibits anti-breast cancer activity” (EXCLI Journal, 2022)

Legend:
PIK3C2B = molecular target: T1, PIK3C2B (Homo sapiens, UniProt O00750); assay: ADP-Glo lipid kinase assay, PIK3C2B; type: biochemical; settings: 10 µM compound
T1 construct: purchased Carna Biosciences Inc; Invitrogen Corporation

MCF7 cells [1] = assay: Western blotting / immunofluorescence, MCF7; type: cell-based, human
Experimental: (§1) Cells were exposed to MMV652103 or vehicle for 24 and 48 h. Cell lysates were prepared, and western blotting performed as previously described (Abrahams et al., 2008[1]). Primary antibodies were: PARP1/2 (sc-7150, 1:1000), p53 (sc-126, 1:1000), p21 (sc-756, 1:1000), cyclin B1 (H-433) (sc-752, 1:500) from Santa Cruz (California, USA), phospho-H2AX (#2577, 1:1000), phospho-p38 MAP Kinase (#9211, 1:1000), LC3 (#2775, 1:1000), caspase-7 (#9492, 1:1000), caspase-8 (#9746, 1:1000), caspase-9 (#9502S, 1:1000), from Cell Signaling (Boston, MA, USA), PUMA (ab9643, 1:1000) (AbCam, Cambridge, MA, USA) and p38 (M0800, 1:5000) from Sigma (St. Louis, MO, USA). Total p38 was used as a loading control because although its activity is modulated by phosphorylation, its total levels remain unaltered in response to stimuli (Raingeaud et al., 1995[68]). Densitometry readings were obtained using ImageJ v1.50i58 and protein expression levels were represented as a ratio of protein of interest/p38 loading control normalized to the vehicle treated control sample where appropriate. All blots are representative of at least three independent experiments.
(§2) Cells on glass coverslips were treated with either MMV652103 or vehicle for 24 and 48 h and processed for immunofluorescence with antibodies against phospho H2A.X (#2577) (1:500) or LC3B (#2775) (1:200) (Cell Signaling Technology) as previously described (Bleloch et al., 2019[8]). Cells were imaged using confocal microscopy (Carl Zeiss LSM 880 with Fast Airyscan module confocal (Oberkochen, Germany)). Multiple z layers were acquired with […] step width. Images were processed using ZEN 2012 imaging software (Carl Zeiss) and maximum intensity projections were generated. For quantification, mean fluorescence was measured from at least 20 fields of view per treatment condition and pooled from three independent replicates.

T47D cells = assay: Western blotting / immunofluorescence, T47D; type: cell-based, human
Experimental: as §1, §2

MCF7 cells [2] = assay: Cell cycle analysis by flow cytometry; type: cell-based, human; settings: IC50, 24 and 48 h
Experimental: Log-phase MCF7 cells were exposed to MMV652103 for 24 and 48 h and both adherent and floating cells were collected, processed as previously described and analyzed using a Becton Dickinson FACSCalibur flow cytometer (Becton Dickinson, New Jersey, USA) with a 488 nm coherent laser (Bleloch et al., 2019[8]). The data were acquired using CellQuest Pro version 5.2.1. software (Becton Dickinson) and the analyses were done using ModFit version 2.0. software (Verity Software House Inc, Maine, USA).

T1 sequence (O00750 whole entry): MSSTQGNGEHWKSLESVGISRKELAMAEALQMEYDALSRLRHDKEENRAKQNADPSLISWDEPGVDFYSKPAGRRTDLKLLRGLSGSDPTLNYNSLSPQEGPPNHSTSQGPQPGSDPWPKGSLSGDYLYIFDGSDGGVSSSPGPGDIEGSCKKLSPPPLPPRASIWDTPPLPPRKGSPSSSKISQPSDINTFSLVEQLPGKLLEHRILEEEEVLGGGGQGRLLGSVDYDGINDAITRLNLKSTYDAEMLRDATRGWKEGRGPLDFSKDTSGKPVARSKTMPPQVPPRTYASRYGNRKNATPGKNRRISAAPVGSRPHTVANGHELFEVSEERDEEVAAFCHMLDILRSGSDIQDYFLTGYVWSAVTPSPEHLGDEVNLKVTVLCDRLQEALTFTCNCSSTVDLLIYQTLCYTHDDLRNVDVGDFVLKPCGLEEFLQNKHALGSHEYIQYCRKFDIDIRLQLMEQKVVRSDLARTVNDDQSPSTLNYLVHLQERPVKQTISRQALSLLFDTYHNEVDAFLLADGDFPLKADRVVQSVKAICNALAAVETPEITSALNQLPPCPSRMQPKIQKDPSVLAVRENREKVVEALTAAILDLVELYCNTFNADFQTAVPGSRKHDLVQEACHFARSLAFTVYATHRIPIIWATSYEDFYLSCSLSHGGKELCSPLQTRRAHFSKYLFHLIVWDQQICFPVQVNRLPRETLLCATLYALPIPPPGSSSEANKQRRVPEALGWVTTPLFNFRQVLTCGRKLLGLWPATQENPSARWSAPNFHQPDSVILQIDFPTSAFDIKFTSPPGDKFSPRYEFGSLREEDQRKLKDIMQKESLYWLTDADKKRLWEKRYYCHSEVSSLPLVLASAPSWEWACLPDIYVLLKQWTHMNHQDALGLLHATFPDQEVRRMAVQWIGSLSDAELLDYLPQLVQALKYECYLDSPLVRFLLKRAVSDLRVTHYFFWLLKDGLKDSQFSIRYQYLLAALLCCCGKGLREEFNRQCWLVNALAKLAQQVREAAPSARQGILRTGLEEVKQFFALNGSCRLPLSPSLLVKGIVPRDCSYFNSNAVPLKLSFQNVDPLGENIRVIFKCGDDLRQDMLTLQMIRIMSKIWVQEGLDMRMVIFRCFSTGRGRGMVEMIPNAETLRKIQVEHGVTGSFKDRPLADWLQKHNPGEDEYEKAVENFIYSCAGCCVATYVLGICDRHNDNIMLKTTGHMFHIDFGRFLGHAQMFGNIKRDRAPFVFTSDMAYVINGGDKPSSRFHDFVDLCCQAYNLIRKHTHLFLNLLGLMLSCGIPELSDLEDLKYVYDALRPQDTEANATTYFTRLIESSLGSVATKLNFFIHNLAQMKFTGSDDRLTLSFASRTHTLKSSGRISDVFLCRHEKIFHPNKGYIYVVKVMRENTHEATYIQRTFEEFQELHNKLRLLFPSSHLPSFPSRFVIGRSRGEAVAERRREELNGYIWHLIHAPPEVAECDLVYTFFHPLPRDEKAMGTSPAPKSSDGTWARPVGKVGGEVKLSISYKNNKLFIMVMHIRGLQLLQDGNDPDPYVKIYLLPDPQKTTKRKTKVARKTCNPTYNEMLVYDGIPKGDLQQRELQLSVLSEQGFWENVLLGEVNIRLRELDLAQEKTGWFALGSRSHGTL

CS(=O)(=O)c1ccc(-c2cnc3ccc(-c4cccc(S(C)(=O)=O)c4)nn23)cc1 [MMV652103]
remaining activity at 10 µM (PIK3C2B): 31%
LC3 to LC3II conversion (MCF7 cells [1]; western blot): led to the conversion of LC3 to LC3II
cyclin A and cyclin B1 levels (MCF7 cells [1]; western blot): reduced
levels of p53, MCF7 (MCF7 cells [1]; western blot): dose- and time-dependent increase
levels of phosphorylated p38, MCF7 (MCF7 cells [1]; western blot): increased
p21 levels, MCF7 (MCF7 cells [1]; western blot): increased
levels of γH2AX, MCF7 (MCF7 cells [1]; ½ IC50 and IC50, 24 and 48 h): dose- and time-dependent increase
levels of PUMA, cleaved caspase-8, caspase-9, caspase-7 and PARP (MCF7 cells [1]; ½ IC50 and IC50, western blot): increased levels
levels of phosphorylated p38, T47D (T47D cells; western blot): increased
p21 levels, T47D (T47D cells; western blot): increased
levels of p53, T47D (T47D cells; western blot, mutant non-functional p53): no effect
levels of γH2AX, T47D (T47D cells; ½ IC50 and IC50, 24 and 48 h): dose- and time-dependent increase
effect on MCF7 cell cycle progression (MCF7 cells [2]): induced sub-G1 peaks and arrested cells in G1
